Literature values as cited in patent publication US8138336B2, “Pyrrolotriazine derivatives useful for treating cancer through inhibition of aurora kinase” (Bayer HealthCare LLC, priority 2007, dated 2012).
Read-outs that look alike come from different tables or passages of the source.

Test system: breast tumors

CC(=O)O[C@@]12CO[C@@H]1C[C@H](O)[C@@]1(C)C(=O)[C@H](O)C3=C(C)[C@@H](OC(=O)[C@H](O)[C@@H](NC(=O)OC(C)(C)C)c4ccccc4)C[C@@](O)([C@@H](OC(=O)c4ccccc4)[C@H]21)C3(C)C [Docetaxel]
response rate to Docetaxel treatment (patients with breast tumors with high Aurora-A mRNA levels): 41%
response rate to Docetaxel treatment (patients with low Aurora-A mRNA breast tumors): 71%
